# Key:
# [1] = molecular target: T1, Human immunodeficiency virus type 1 integrase (Human immunodeficiency virus 1, UniProt Q7ZJM1); assay: Inhibition of HIV1 integrase strand transfer activity
# [2] = molecular target: T1, Human immunodeficiency virus type 1 integrase; assay: Inhibition of HIV1 integrase 3' processing activity
# T1 sequence (Q7ZJM1 whole entry): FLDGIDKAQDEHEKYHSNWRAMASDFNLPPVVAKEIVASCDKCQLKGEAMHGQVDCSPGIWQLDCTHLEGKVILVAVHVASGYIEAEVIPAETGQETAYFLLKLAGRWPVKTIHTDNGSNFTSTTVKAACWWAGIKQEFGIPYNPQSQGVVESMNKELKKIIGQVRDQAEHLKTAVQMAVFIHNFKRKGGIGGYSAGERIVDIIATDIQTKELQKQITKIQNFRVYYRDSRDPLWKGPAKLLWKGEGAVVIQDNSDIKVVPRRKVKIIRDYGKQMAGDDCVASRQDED
Structure (SMILES),IC50 [1],IC50 [2]
COc1cc(/C=C2\C(=O)N(c3cccc(Br)c3)N=C2C(F)(F)F)cc(OC)c1OC,15 µM,61 µM
COc1ccc(/C=C2\C(=O)N(c3cccc(I)c3)N=C2C(F)(F)F)cc1OCc1ccc(F)cc1,35 µM,> 100 µM
COc1ccc(/C=C2\C(=O)N(c3cccc(Cl)c3)N=C2C(F)(F)F)cc1OCc1ccc(F)cc1,30 µM,88 µM
COc1ccc(/C=C2\C(=O)N(c3cccc(Br)c3)N=C2C(F)(F)F)cc1OC,34 µM,89 µM
O=C(O)C1=NN(c2cccc([N+](=O)[O-])c2)C(=O)/C1=C\c1ccc(OCc2ccc(F)cc2)c(O)c1,3 µM,21 µM
COc1ccc(/C=C2\C(=O)N(c3cccc(Br)c3)N=C2C)cc1OCc1ccc(F)cc1,> 100 µM,> 100 µM
COc1ccc(/C=C2\C(=O)N(c3cccc(Br)c3)N=C2C(=O)O)cc1OCc1ccc(F)cc1,19 µM,55 µM
COc1ccc(/C=C2\C(=O)N(c3cccc(F)c3)N=C2C(F)(F)F)cc1OCc1ccc(F)cc1,60 µM,> 100 µM
COc1ccc(/C=C2\C(=O)N(c3cccc(Br)c3)N=C2NC(=O)C(F)(F)F)cc1OCc1ccc(F)cc1,> 100 µM,> 100 µM
COc1ccc(/C=C2\C(=O)N(c3cccc(-c4ccccc4)c3)N=C2C(F)(F)F)cc1OCc1ccc(F)cc1,16 µM,> 100 µM
COc1ccc(/C=C2\C(=O)N(c3cc(Cl)cc(Cl)c3)N=C2C(F)(F)F)cc1OCc1ccc(F)cc1,12 µM,> 100 µM
COc1ccc(/C=C2\C(=O)N(c3cccc(Br)c3)N=C2C(F)(F)F)cc1Cc1ccc(F)cc1,11 µM,21 µM
COc1ccc(/C=C2\C(=O)N(c3cccc(Br)c3)N=C2C(F)(F)F)c(OC)c1OC,> 100 µM,> 100 µM
COc1ccc(/C=C2\C(=O)N(c3ccc(C(=O)O)cc3)N=C2C(F)(F)F)cc1OCc1ccc(F)cc1,41 µM,> 100 µM
COc1ccc(/C=C2\C(=O)N(c3ccc(Br)cc3)N=C2C(F)(F)F)cc1OCc1ccc(F)cc1,25 µM,82 µM
COc1ccc(/C=C2\C(=O)N(c3cccc([N+](=O)[O-])c3)N=C2C(=O)O)cc1OCc1ccc(F)cc1,14 µM,60 µM

Structure (SMILES),IC50 [1],IC50 [2]
COc1ccc(/C=C2\C(=O)N(c3cccc(C(F)(F)F)c3)N=C2C(F)(F)F)cc1OCc1ccc(F)cc1,24 µM,90 µM
COc1ccc(/C=C2\C(=O)N(c3cccc(Br)c3)N=C2COC(C)=O)cc1OCc1ccc(F)cc1,57 µM,> 100 µM
CCC(=O)OC1=NN(c2cccc(Br)c2)C(=O)/C1=C\c1ccc(OC)c(OCc2ccc(F)cc2)c1,88 µM,> 100 µM
COc1ccc(/C=C2\C(=O)N(c3ccc(I)cc3)N=C2C(F)(F)F)cc1OCc1ccc(F)cc1,69 µM,> 100 µM
O=C(O)C1=NN(c2cccc([N+](=O)[O-])c2)C(=O)/C1=C\c1ccc(O)c(OCc2ccc(F)cc2)c1,10 µM,95 µM
COc1ccc(/C=C2\C(=O)N(c3cccc(C)c3)N=C2C(F)(F)F)cc1OCc1ccc(F)cc1,> 100 µM,> 100 µM
O=C1/C(=C\c2ccc(O)c(OCc3ccc(F)cc3)c2)C(C(F)(F)F)=NN1c1cccc(Br)c1,22 µM,> 100 µM
COc1ccc(/C=C2\C(=O)N(c3cccc(Br)c3)N=C2C(F)(F)F)cc1OCc1cccc(Cl)c1F,30 µM,50 µM
COc1ccc(/C=C2\C(=O)N(c3cccc(Br)c3)N=C2C(F)(F)F)cc1OCc1ccc(F)cc1,40 µM,83 µM
CCC1=NN(c2cccc(Br)c2)C(=O)/C1=C\c1ccc(OC)c(OCc2ccc(F)cc2)c1,> 100 µM,> 100 µM
COc1ccc(/C=C2\C(=O)N(c3ccccc3)N=C2C(F)(F)F)cc1OCc1ccc(F)cc1,> 100 µM,> 100 µM
COc1ccc(/C=C2\C(=O)N(c3ccc(NS(C)(=O)=O)cc3)N=C2C(F)(F)F)cc1OCc1ccc(F)cc1,> 100 µM,> 100 µM
COc1ccc(/C=C2\C(=O)N(c3cccc(Br)c3)N=C2OC(C)=O)cc1OCc1ccc(F)cc1,100 µM,> 100 µM
COc1ccc(/C=C2\C(=O)N(c3cccc([N+](=O)[O-])c3)N=C2C(=O)O)cc1Cc1ccc(F)cc1,11 µM,15 µM
COc1ccc(/C=C2\C(=O)N(c3cccc([N+](=O)[O-])c3)N=C2C(F)(F)F)cc1OCc1ccc(F)cc1,19 µM,52 µM
COc1ccc(/C=C2\C(=O)N(c3nc4ccccc4s3)N=C2C(F)(F)F)cc1OCc1ccc(F)cc1,27 µM,> 100 µM

# Reference: ChEMBL document CHEMBL1268896, “Development of the next generation of HIV-1 integrase inhibitors: pyrazolone as a novel inhibitor scaffold” (Bioorg Med Chem Lett, 2010)
